Assay results from patent US7816371B2, “Bicycloheteroaryl compounds as P2X7 modulators and uses thereof” (Renovis, Inc., priority 2006, dated 2010).
pIC50: −log10 of the molar value.

Target: T1, P2X7 receptor (Homo sapiens, UniProt Q99572)
T1 construct: host or cells: THP-1 cells differentiated with LPS and IFN-γ
T1 sequence (Q99572 1-595): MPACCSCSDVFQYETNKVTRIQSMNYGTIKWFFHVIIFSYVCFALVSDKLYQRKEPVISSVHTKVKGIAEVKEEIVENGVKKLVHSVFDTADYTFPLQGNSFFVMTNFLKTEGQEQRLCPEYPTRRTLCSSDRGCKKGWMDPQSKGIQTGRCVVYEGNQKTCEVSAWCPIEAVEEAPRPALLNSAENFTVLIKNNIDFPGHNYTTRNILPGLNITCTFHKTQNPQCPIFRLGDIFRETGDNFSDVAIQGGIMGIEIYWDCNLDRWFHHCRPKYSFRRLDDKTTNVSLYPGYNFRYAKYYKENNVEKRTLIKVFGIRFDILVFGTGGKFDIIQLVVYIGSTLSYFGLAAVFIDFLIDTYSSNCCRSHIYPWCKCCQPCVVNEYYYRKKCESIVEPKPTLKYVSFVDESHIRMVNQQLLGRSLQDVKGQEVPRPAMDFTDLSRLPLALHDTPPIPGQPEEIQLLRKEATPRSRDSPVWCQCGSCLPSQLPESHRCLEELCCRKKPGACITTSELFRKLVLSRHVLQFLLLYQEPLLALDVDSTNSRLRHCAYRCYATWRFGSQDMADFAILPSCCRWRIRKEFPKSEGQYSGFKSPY
Test: IL-1β release assay in differentiated THP-1 cells stimulated with BzATP (Example 9); % inhibition and IC50
Type: cell-based
Details: THP-1 cells differentiated with LPS and IFN-γ, 30 min pretreatment, BzATP 250 uM, IL-1β by ELISA
Protocol: The cells are then pretreated for 30 minutes with the compound of interest at the appropriate concentration in RPMI media containing 100 IU/mL penicillin, 100 ug/mL streptomycin. […] 30 uL of cell supernatant is then collected and IL-1β levels determined via ELISA (R&D systems Cat. # HSLB50) according to manufacturer's recommendations using the Tecan Safire plate reader. Background adjusted IL-1β levels of drug treated and non-treated cells are used to calculate the percent inhibition.
The compounds set forth in Table 1 were tested for activity in a cellular model as described herein.

**Q.** With `C[C@H](C(N)=O)n1ccc2c(NC(=O)Cc3ccc(C#N)cc3)cccc2c1=O` [Compound 287] as the molecule, how does the pIC50 read?
**A.** The pIC50 was 6.48.

**Q.** With `C[C@H](C(N)=O)n1ccc2c(NC(=O)Cc3ccc(-c4ccccc4)cc3)cccc2c1=O` [Compound 289] as the molecule, how does the pIC50 read?
**A.** The pIC50 was 7.28.

**Q.** How did the pIC50 turn out when `C[C@@H](C(N)=O)n1ccc2c(NC(=O)Cc3ccc(Cl)c(F)c3)cccc2c1=O` [Compound 352] was run?
**A.** The pIC50 was 7.49.

**Q.** How did the pIC50 turn out when `O=C(Cc1ccccc1)Nc1cccc2c(=O)n(CCO)ccc12` [Compound 76] was run?
**A.** The pIC50 was < 6.00.

**Q.** How did the pIC50 turn out when `C[C@H](C(=O)Nc1cccc2c(=O)n([C@H](C)C(=O)NC3CC3)ccc12)c1ccc(Cl)cc1` [Compound 308, (R)-2-{5-[(S)-2-(4-Chloro-phenyl)-propionylamino]-1-oxo-1H-isoquinolin-2-yl}-N-cyclopropyl-propionamide] was run?
**A.** The pIC50 was 6.52.

**Q.** With `C[C@H](CO)n1ccc2c(NC(=O)Cc3ccc(C(F)(F)F)c(F)c3)c(Cl)ccc2c1=O` [Compound 375, N-[6-Chloro-2-((R)-2-hydroxy-1-methyl-ethyl)-1-oxo-1,2-dihydro-isoquinolin-5-yl]-2-(3-fluoro-4-trifluoromethyl-phenyl)-acetamide] as the molecule, how does the pIC50 read?
**A.** The pIC50 was 8.33.

**Q.** How did the pIC50 turn out when `C[C@H](C(N)=O)n1ccc2c(NC(=O)Cc3ccc(C(F)(F)F)cc3F)cccc2c1=O` [Compound 296] was run?
**A.** The pIC50 was 7.75.

**Q.** `CC(C)[C@H](C(=O)O)n1ccc2c(NC(=O)[C@@H](C)c3ccc(Cl)cc3)cccc2c1=O` [Compound 323, (R)-2-{5-[(S)-2-(4-Chloro-phenyl)-propionylamino]-1-oxo-1H-isoquinolin-2-yl}-3-methyl-butyric acid] was tested. Which pIC50 did it give?
**A.** The pIC50 was 6.49.

**Q.** With `C[C@H](C(N)=O)n1ccc2c(NC(=O)c3cccc4ncccc34)cccc2c1=O` [Compound 272] as the molecule, how does the pIC50 read?
**A.** The pIC50 was < 6.00.

**Q.** How did the pIC50 turn out when `C[C@H](C(N)=O)n1ccc2c(NC(=O)Cc3ccc(F)c(C(F)(F)F)c3)cccc2c1=O` [Compound 304] was run?
**A.** The pIC50 was 8.23.

**Q.** How did the pIC50 turn out when `CC(C)C[C@H](CO)n1ccc2c(NC(=O)Cc3ccc(Cl)c(C(F)(F)F)c3)cccc2c1=O` [Compound 280] was run?
**A.** The pIC50 was 6.92.

**Q.** `Cc1ccc2c(=O)n([C@H](C)CO)ccc2c1NC(=O)Cc1ccc(F)c(C(F)(F)F)c1` [Compound 394] was tested. Which pIC50 did it give?
**A.** The pIC50 was 9.13.

**Q.** `CC(C)(CO)n1ccc2c(NC(=O)Cc3ccc(Cl)c(F)c3)cccc2c1=O` [Compound 373] was tested. Which pIC50 did it give?
**A.** The pIC50 was 6.59.

**Q.** `O=C(Cc1ccc(C(F)(F)F)cc1)Nc1cccc2c(=O)n(CCO)ccc12` [Compound 7] was tested. Which pIC50 did it give?
**A.** The pIC50 was 6.54.

**Q.** With `CC(C)(CO)n1ccc2c(NC(=O)Cc3ccc(Cl)c(Cl)c3)cccc2c1=O` [Compound 371] as the molecule, how does the pIC50 read?
**A.** Its pIC50 is 6.80.

**Q.** How did the pIC50 turn out when `O=C(Cc1cc(C(F)(F)F)ccc1C(F)(F)F)Nc1cccc2c(=O)n(CCO)ccc12` [Compound 70] was run?
**A.** The pIC50 was 6.39.

**Q.** `C[C@H](CO)n1ccc2c(NC(=O)[C@H](C)c3ccc(Cl)c(Cl)c3)cccc2c1=O` [Compound 320] was tested. Which pIC50 did it give?
**A.** Its pIC50 is 8.02.

**Q.** How did the pIC50 turn out when `CC(C(=O)Nc1cccc2c(=O)n([C@H](C)C(N)=O)ccc12)c1ccc(Cl)cc1` (stereo partly shown) [Compound 247] was run?
**A.** The pIC50 was 7.73.

**Q.** `NC(=O)[C@H](CO)n1ccc2c(NC(=O)Cc3ccc(Cl)c(Cl)c3)cccc2c1=O` [Compound 253] was tested. Which pIC50 did it give?
**A.** The pIC50 was 6.12.

**Q.** How did the pIC50 turn out when `O=C(Cc1ccc(Cl)c(C(F)(F)F)c1)Nc1cccc2c(=O)n(C[C@H]3CCCN3)ccc12` [Compound 243] was run?
**A.** Its pIC50 is 7.45.

**Q.** `C[C@@H](C(N)=O)n1ccc2c(NC(=O)Cc3ccc(Cl)cc3F)cccc2c1=O` [Compound 350] was tested. Which pIC50 did it give?
**A.** Its pIC50 is 7.86.

**Q.** `CNC(=O)[C@@H](C(C)C)n1ccc2c(NC(=O)[C@H](C)c3ccc(Cl)cc3)cccc2c1=O` [Compound 277] was tested. Which pIC50 did it give?
**A.** The pIC50 was 7.09.

**Q.** With `COc1cccc(CC(=O)Nc2cccc3c(=O)n(CCO)ccc23)c1` [Compound 75] as the molecule, how does the pIC50 read?
**A.** The pIC50 was < 6.00.

**Q.** `O=C(Cc1ccc(Cl)c(C(F)(F)F)c1)Nc1cccc2c(=O)n(CC3CCNCC3)ccc12` [Compound 257, 2-(4-Chloro-3-trifluoromethyl-phenyl)-N-(1-oxo-2-piperidin-4-ylmethyl-1,2-dihydro-isoquinolin-5-yl)-acetamide] was tested. Which pIC50 did it give?
**A.** Its pIC50 is 7.41.

**Q.** With `CC(C(=O)Nc1cccc2c(=O)n([C@H](C)C(N)=O)ccc12)c1ccc(Cl)c(Cl)c1` (stereo partly shown) [Compound 254] as the molecule, how does the pIC50 read?
**A.** The pIC50 was 7.60.

**Q.** How did the pIC50 turn out when `COc1ccc(CC(=O)Nc2cccc3c(=O)n(CCO)ccc23)cc1Br` [Compound 66] was run?
**A.** Its pIC50 is 6.96.

**Q.** `Cc1ccc2c(=O)n([C@H](C)CO)ccc2c1NC(=O)Cc1ccc(C(F)(F)F)cc1` [Compound 397] was tested. Which pIC50 did it give?
**A.** The pIC50 was 8.26.

**Q.** With `O=C(CCc1ccccc1)Nc1cccc2c(=O)n(CCO)ccc12` [Compound 3] as the molecule, how does the pIC50 read?
**A.** The pIC50 was 6.56.

**Q.** `O=C(Cc1ccc(C(F)(F)F)cc1C(F)(F)F)Nc1cccc2c(=O)n(CCO)ccc12` [Compound 230] was tested. Which pIC50 did it give?
**A.** Its pIC50 is 6.79.

**Q.** With `CNC(=O)[C@@H](CO)n1ccc2c(NC(=O)C(C)c3ccc(Cl)cc3)cccc2c1=O` (stereo partly shown) [Compound 261] as the molecule, how does the pIC50 read?
**A.** The pIC50 was 6.73.

**Q.** How did the pIC50 turn out when `O=C(Cc1ccc(Cl)cc1Cl)Nc1cccc2c(=O)n(CCO)ccc12` [Compound 69] was run?
**A.** The pIC50 was 7.97.

**Q.** With `CC(C(=O)Nc1cccc2c(=O)n([C@H](CO)C(N)=O)ccc12)c1ccc(Cl)cc1` (stereo partly drawn) [Compound 252, (R)-2-{5-[2-(4-Chloro-phenyl)-propionylamino]-1-oxo-1H-isoquinolin-2-yl}-3-hydroxy-propionamide] as the molecule, how does the pIC50 read?
**A.** Its pIC50 is 6.79.

**Q.** How did the pIC50 turn out when `O=C(Cc1ccc(F)c(Cl)c1)Nc1cccc2c(=O)n(CCO)ccc12` [Compound 341] was run?
**A.** Its pIC50 is 7.28.

**Q.** With `CC(C)[C@H](C(=O)NC1CC1)n1ccc2c(NC(=O)[C@@H](C)c3ccc(Cl)cc3)cccc2c1=O` [Compound 281, (R)-2-{5-[(S)-2-(4-Chloro-phenyl)-propionylamino]-1-oxo-1H-isoquinolin-2-yl}-N-cyclopropyl-3-methyl-butyramide] as the molecule, how does the pIC50 read?
**A.** The pIC50 was 8.13.

**Q.** With `C[C@H](C(N)=O)n1ccc2c(NC(=O)Cc3c(F)cccc3F)cccc2c1=O` [Compound 292] as the molecule, how does the pIC50 read?
**A.** The pIC50 was < 6.00.

**Q.** `CC(C)(CO)n1ccc2c(NC(=O)Cc3ccc(C(F)(F)F)cc3C(F)(F)F)cccc2c1=O` [Compound 366] was tested. Which pIC50 did it give?
**A.** The pIC50 was 6.10.

**Q.** With `CC(C)[C@H](C(N)=O)n1ccc2c(NC(=O)[C@H](C)c3ccc(Cl)cc3)cccc2c1=O` [Compound 284, (R)-2-{5-[(R)-2-(4-Chloro-phenyl)-propionylamino]-1-oxo-1H-isoquinolin-2-yl}-3-methyl-butyramide] as the molecule, how does the pIC50 read?
**A.** Its pIC50 is 8.16.

**Q.** With `CC(C)(CO)n1ccc2c(NC(=O)Cc3ccc(Cl)cc3F)cccc2c1=O` [Compound 374] as the molecule, how does the pIC50 read?
**A.** The pIC50 was 6.76.

**Q.** How did the pIC50 turn out when `C[C@@H](CO)n1ccc2c(NC(=O)Cc3ccc(Cl)c(F)c3)cccc2c1=O` [Compound 334] was run?
**A.** Its pIC50 is 6.69.

**Q.** How did the pIC50 turn out when `CCC(C(=O)Nc1cccc2c(=O)n(CCO)ccc12)c1ccccc1` (stereo not shown) [Compound 74] was run?
**A.** Its pIC50 is < 6.00.

**Q.** `C[C@H](C(N)=O)n1ccc2c(NC(=O)Cc3cccc(OC(F)(F)F)c3)cccc2c1=O` [Compound 313] was tested. Which pIC50 did it give?
**A.** Its pIC50 is 6.15.

**Q.** How did the pIC50 turn out when `CNC(=O)[C@@H](C(C)C)n1ccc2c(NC(=O)[C@@H](C)c3ccc(Cl)cc3)cccc2c1=O` [Compound 276, (R)-2-{5-[(S)-2-(4-Chloro-phenyl)-propionylamino]-1-oxo-1H-isoquinolin-2-yl}-3,N-dimethyl-butyramide] was run?
**A.** Its pIC50 is 7.27.

**Q.** `C[C@H](C(N)=O)n1ccc2c(NC(=O)Cc3ccc(F)c(F)c3F)cccc2c1=O` [Compound 379] was tested. Which pIC50 did it give?
**A.** Its pIC50 is 7.52.

**Q.** `CC(C)[C@H](C(=O)NC1CC1)n1ccc2c(NC(=O)[C@H](C)c3ccc(Cl)cc3)cccc2c1=O` [Compound 282] was tested. Which pIC50 did it give?
**A.** The pIC50 was 7.47.

**Q.** How did the pIC50 turn out when `C[C@@H](C(=O)Nc1cccc2c(=O)n([C@@H](C)C(N)=O)ccc12)c1ccc(Cl)cc1` [Compound 266] was run?
**A.** The pIC50 was 7.41.

**Q.** How did the pIC50 turn out when `CS(=O)(=O)c1ccc(CCC(=O)Nc2cccc3c(=O)n(CCO)ccc23)cc1` [Compound 71] was run?
**A.** The pIC50 was < 6.00.
